One data set relates to U251. Put plainly: Anti-cancer screen (MTT), U251. It is filed as cell-based. Particulars: Homo sapiens, U-251, 48 hours. Here is the method:
(§1) Experimental drugs are screened for anti-cancer activity in three cell lines for their GI50, TGI and LC50 values (using five concentrations for each compound). The cell lines are maintained in DMEM containing 10% fetal bovine serum. 96 well microtiter plates are inoculated with cells in 100 μL for 24 h at 37° C., 5% CO2, 95% air and 100% relative humidity. 5000 HCT116 cells/well, 5000 NCIH460 cells/well, 10000 U251 cells/well and 5000 MDAMB231 cells/well are plated. A separate plate with these cell lines is also inoculated to determine cell viability before the addition of the compounds (T0).
(§2) Following 24 hours incubation, experimental drugs are added to the 96 well plates. Each plate contains one of the above cell lines and the following in triplicate: five different concentrations (0.01, 0.1, 1, 10 and 100 μM) of four different compounds, appropriate dilutions of a cytotoxic standard and control (untreated) wells. Compounds are dissolved in dimethylsulfoxide (DMSO) to make 20 mM stock solutions on the day of drug addition and frozen at −20° C. Serial dilutions of these 20 mM stock solutions are made in complete growth medium such that 100 μL of these drug solutions in medium, of final concentrations equaling 0.01, 0.1, 1, 10 and 100 μM can be added to the cells in triplicate. Standard drugs whose anti-cancer activity has been well documented and which are regularly used are doxorubicin and SAHA.
(§3) Cells are incubated with compounds for 48 hours followed by the addition of 10 μL 3-(4,5-Dimethyl-2-thiazolyl)-2,5-diphenyl-2H-tetrazolium (MTT) solution per well and a subsequent incubation at 37° C., 5% CO2, 95% air and 100% relative humidity, protected from light. After 4 hours, well contents are aspirated carefully followed by addition of 150 μL DMSO per well. Plates are agitated to ensure solution of the formazan crystals in dimethylsulphoxide and absorbance read at 570 nm.
(§4) Percent growth is calculated for each compound's concentration relative to the control and zero measurement wells (To; viability right before compound addition). If a test well's O.D. value is greater than the To measurement for that cell line % Growth=(test−zero)/(control−zero)×100
(§5) If a test well's O.D. value is lower than the T0 measurement for that cell line, […]

For the next data set, the system named is NCI-H460. The data set can be described thus: Anti-cancer screen (MTT), NCI-H460. It is filed as cell-based. The note with it: Homo sapiens, NCI-H460; 48 hours, MTT. The method, then: as §1
Following 24 hours incubation, experimental drugs are added to the 96 well plates. […] Compounds are dissolved in dimethylsulfoxide (DMSO) to make 20 mM stock solutions on the day of drug addition and frozen at −20° C. […] Standard drugs whose anti-cancer activity has been well documented and which are regularly used are doxorubicin and SAHA.
as §3, §4, §5

In the next data set the test system is TNF-α. Put plainly: In vitro measurement of TNF-α in human PBMC. It is filed as cell-based. The note with it: LPS. The method, then:
In Vitro Measurement of Tumor Necrosis Factor Alpha (TNF-α)
This assay determines the effect of test compounds on the production of TNF-α in human Peripheral Blood Mononuclear Cells (PBMC). Compounds were tested for their ability to inhibit the activity of TNF-α in human PBMC. PBMC were isolated from blood (from healthy volunteers) using BD Vacutainer CPT™ (Cell preparation tube, BD Bio Science) and suspended in RPMI medium (Physiol. Res. 52; 593-598, 2003). The test compounds were pre-incubated with PBMC (0.5 million/incubation well) for 15 minutes at 37° C. and then stimulated with Lipopolysaccharide (Escherichia coli: B4; 1 μg/ml) for 18 hours at 37° C. in 5% CO2. The levels of TNF-α in the cell culture medium were estimated using enzyme linked Immunosorbent assay performed in a 96 well format as per the procedure of the manufacturer (R&D Systems, Inc. 614 McKinley Place Nebr., Minneapolis, Minn. 55413, USA).

The next data set deals with IL-6. The data set can be described thus: In vitro measurement of IL-6 in human PBMC. It is filed as cell-based. Particulars: LPS; for inhibition at 10 µM: Conc. 10 μM. The method, then:
(§6) In vitro Measurement of Interleukin-6 (IL-6) & Interleukin-1β (IL1β)
(§7) This assay determines the effect of test compounds on the production of IL-6 and IL1β in human PBMC (Physiol. Res. 52: 593-598, 2003). Compounds were tested for their ability to inhibit the activity of IL-6 and IL1β in human PBMC. PBMC were isolated from blood using BD Vacutainer CPT™ Cell preparation tube (BD Bio Science) and suspended in RPMI medium. The test compounds were preincubated with PBMC (0.5 million/incubation well) for 15 minutes at 37° C. and then stimulated with Lipopolysaccharide (Escherichia coli: B4; 1 μg/ml) for 18 hours at 37° C. in 5% CO2. The levels of IL-6 and IL1β in cell culture medium were estimated using enzyme linked Immunosorbent assay performed in a 96 well format as per the procedure of the manufacturer (R&D Systems, Inc. 614 McKinley Place Nebr., Minneapolis, Minn. 55413, USA).

A further data set has as its system HCT116. Put plainly: Anti-cancer screen (MTT), HCT116. It is filed as cell-based. The note with it: Homo sapiens, HCT-116, 48 hours. The method, then: as §1, §2, §3, §4, §5
In a further data set the test system is IL-1β. The data set can be described thus: In vitro measurement of IL-1β in human PBMC. Particulars: LPS. It is filed as cell-based. The method, then:
as §6, §7

Consider `CSc1nc(-c2ccncc2)nc(NCCO)c1C(=O)Nc1ccc(Cl)cc1` [Example 47, N-(4-Chlorophenyl)-4-[(2-hydroxyethyl)amino]-6-(methylthio)-2-pyridin-4-ylpyrimidine-5-carboxamide], for which the 50% growth inhibitory concentration (GI50) (usually the concentration giving 50% growth inhibition) in the data set on U251 turned out to be 300 nM; with NCI-H460, 100 nM.

As to `CCc1ccc(NC(=O)c2c(NC)nc(-c3ccc(S(N)(=O)=O)cc3)nc2NC)cc1` [Example 16, 2-[4-(Aminosulfonyl)phenyl]-4,6-bis(methylamino)-N-(4-ethylphenyl)pyrimidine-5-carboxamide], the inhibition (commonly the share of the control response that was lost under treatment) at 10 µM in the data set with TNF-α (at 10 μM) is 53.1%.

Consider `CNc1nc(-c2ccc(SC)cc2)nc(SC)c1C(=O)Nc1ccc(C)cc1C` [Example 39, N-(2,4-Dimethylphenyl)-4-(methylamino)-6-(methylthio)-2-[4-(methylthio)phenyl]pyrimidine-5-carboxamide], for which the values for the GI50 with U251 and with NCI-H460 were 90 nM and 2000 nM, respectively.

For the compound `CNc1nc(-c2ccc(N(C)C)cc2)nc(SC)c1C(=O)Nc1ccc(OC)cc1` [Example 57, 2-[4-(Dimethylamino)phenyl]-4-(methylamino)-N-(4-methoxyphenyl)-6-(methylthio)pyrimidine-5-carboxamide], the GI50 is 4000 nM in the data set with U251 and 7000 nM with NCI-H460.

In the data set on IL-6, `CSc1ccc(-c2nc(SC)c(C(=O)Nc3ccc(C)c(C)c3)c(N3CCNCC3)n2)cc1` [Example 42, N-(3,4-Dimethylphenyl)-6-(methylthio)-2-[4-(methylthio)phenyl]-4-piperazin-1-ylpyrimidine-5-carboxamide] yielded an inhibition at 10 µM of 92.2%. Moreover, the GI50 in the data set with U251 was 5000 nM; in the data set with NCI-H460, 3000 nM; in the data set with HCT116 it was 4000 nM. Further, the “IL-1β Inhibition (%)” value with IL-1β (Conc. 10 μM) was “Not active”.

Turning to `CNc1nc(-c2ccc(F)cc2)nc(SC)c1C(=O)Nc1ccc(SC)cc1` [Example 45, 2-(4-Fluorophenyl)-4-(methylamino)-6-(methylthio)-N-[4-(methylthio)phenyl]pyrimidine-5-carboxamide], the GI50 with U251 came to 700 nM; with NCI-H460, 400 nM.

With `CCc1ccc(NC(=O)c2c(NC)nc(-c3ccc(S(N)(=O)=O)cc3)nc2SC)cc1` [Example 17, 2-[4-(Aminosulfonyl)phenyl]-N-(4-ethylphenyl)-4-(methylamino)-6-(methylthio)pyrimidine-5-carboxamide], the inhibition at 0.1 µM in the data set on TNF-α was found to be 30.1%.

In the data set on NCI-H460, `CNc1nc(-c2ccc(SC)cc2)nc(SC)c1C(=O)Nc1ccc(OC)cc1` [Example 20, 4-(Methylamino)-N-(4-methoxyphenyl)-6-(methylthio)-2-[4-(methylthio)phenyl]pyrimidine-5-carboxamide] returned a GI50 of 3200 nM.

Regarding `CCCCc1ccc(NC(=O)c2c(NC)nc(-c3ccc(SC)cc3)nc2SC)cc1` [Example 36], the inhibition at 0.1 µM in the data set with IL-6 (Conc. 0.1 μM) was determined as 26.6%. Also, the GI50 in the data set with U251 was 1800 nM; in the data set on NCI-H460 it was 3000 nM. In the data set with IL-1β (Conc. 0.1 μM), the “IL-1β Inhibition (%)” value is listed as “Not active”.

In the case of `CCc1ccc(NC(=O)c2c(NC)nc(-c3ccncc3)nc2SC)cc1` [Example 21, N-(4-Ethylphenyl)-4-(methylamino)-6-(methylthio)-2-pyridin-4-ylpyrimidine-5-carboxamide], the GI50 in the data set on NCI-H460 is 400 nM; in the data set on HCT116, 9500 nM.

`CNc1nc(-c2ccncc2)nc(SC)c1C(=O)Nc1ccc(C)cc1` [Example 24, 4-(Methylamino)-N-(4-methylphenyl)-6-(methylthio)-2-pyridin-4-ylpyrimidine-5-carboxamide]: the GI50 in the data set with NCI-H460 was determined as 4000 nM; in the data set with HCT116 it was 9900 nM.

`CCOc1ccc(NC(=O)c2c(NC)nc(-c3ccc(SC)cc3)nc2SC)cc1` [Example 40, N-(4-Ethoxyphenyl)-4-(methylamino)-6-(methylthio)-2-[4-(methylthio)phenyl]pyrimidine-5-carboxamide]: the inhibition at 10 µM in the data set with IL-6 worked out at 61.5%. The values for the 50% growth inhibitory concentration (GI50) with U251, in the data set on NCI-H460 and in the data set with HCT116 were 100 nM, 500 nM and 2000 nM, respectively. Moreover, the “IL-1β Inhibition (%)” value in the data set on IL-1β (Conc. 10 μM) is listed as “Not active”.

Regarding `CSc1ccc(-c2nc(O)c(C(=O)Nc3ccc(C)c(C)c3)c(SC)n2)cc1` [Example 2, 4-Hydroxy-N-(3,4-dimethylphenyl)-6-(methylthio)-2-[4-(methylthio)phenyl]pyrimidine-5-carboxamide], the melting point (in general, the temperature of the solid-liquid transition) is 303 to 305 °C.

For `CNc1nc(-c2cccnc2)nc(NC)c1C(=O)Nc1ccc(C)c(C)c1` [Example 7, N-(3,4-Dimethylphenyl)-4,6-bis(methylamino)-2-pyridin-3-ylpyrimidine-5-carboxamide], the melting point was 285 to 286 °C. In the data set with IL-6, this compound had an inhibition at 10 µM of 53.8%. Moreover, the “IL-1β Inhibition (%)” value in the data set with IL-1β (Conc. 10 μM) is “Not active”. In the data set with TNF-α, this compound gave an inhibition at 0.1 µM of 30.4%.

As to `CNc1nc(-c2ccncc2)nc(SC)c1C(=O)Nc1ccc(C(C)C)cc1` [Example 34, N-(4-Isoproylphenyl)-4-(methylamino)-6-(methylthio)-2-pyridin-4-ylpyrimidine-5-carboxamide], the 50% growth inhibitory concentration (GI50) in the data set on NCI-H460 was 900 nM; with HCT116, 9000 nM.

`CSc1ccc(-c2nc(NN)c(C(=O)Nc3ccc(C)c(C)c3)c(SC)n2)cc1` [Example 48, N-(3,4-Dimethylphenyl)-4-hydrazino-6-(methylthio)-2-[4-(methylthio)phenyl]pyrimidine-5-carboxamide]: the GI50 in the data set with U251 worked out at 3000 nM; in the data set with NCI-H460, 5000 nM; in the data set on HCT116, 2500 nM.

As for `CNc1nc(-c2cccnc2)nc(SC)c1C(=O)Nc1ccc(OC)cc1.O=P(O)(O)O` [Example 59, N-(4-Methoxyphenyl)-4-(methylamino)-6-(methylthio)-2-pyridin-3-ylpyrimidine-5-carboxamide orthophosphoric acid salt], the melting point lay within 222 to 225 °C.

Consider `CSc1ccc(-c2nc(NCCO)c(C(=O)Nc3ccc(C)c(C)c3)c(SC)n2)cc1` [Example 32, N-(3,4-Dimethylphenyl)-4-[(2-hydroxyethyl)amino]-6-(methylthio)-2-[4-(methylthio)phenyl]pyrimidine-5-carboxamide], for which the 50% growth inhibitory concentration (GI50) with U251 amounted to 3000 nM; in the data set with HCT116, 4000 nM.

With `CNc1nc(-c2ccncc2)nc(SC)c1C(=O)Nc1ccc(F)cc1` [Example 18, N-(4-Fluorophenyl)-4-(methylamino)-6-(methylthio)-2-pyridin-4-ylpyrimidine-5-carboxamide], the GI50 was 2000 nM in the data set with NCI-H460 and 1200 nM in the data set with HCT116.

`CSc1ccc(-c2nc(O)c(C(=O)Nc3ccc(C)cc3)c(SC)n2)cc1` [Example 1, 4-Hydroxy-N-(4-methylphenyl)-6-(methylthio)-2-[4-(methylthio)phenyl]pyrimidine-5-carboxamide]: the melting point lay within 302 to 305 °C.

As for `CSc1nc(-c2ccncc2)nc(NCCO)c1C(=O)Nc1ccc(Br)cc1` [Example 46, N-(4-Bromophenyl)-4-[(2-hydroxyethyl)amino]-6-(methylthio)-2-pyridin-4-ylpyrimidine-5-carboxamide], the GI50 with U251 and with NCI-H460 was 200 nM in each case.

The record behind these values is patent publication US7759350B2, “Pyrimidine carboxamides” (Orchid Research Laboratories Ltd., priority 2005, dated 2010).
